Patent publication US8426604B2 (Janssen Pharmaceutica NV, priority 2010, dated 2013)

Target: T1, ERR1 (also known as ERR-α or ERR-1) (Homo sapiens, UniProt P11474)
T1 sequence (P11474 193-421 limits assumed): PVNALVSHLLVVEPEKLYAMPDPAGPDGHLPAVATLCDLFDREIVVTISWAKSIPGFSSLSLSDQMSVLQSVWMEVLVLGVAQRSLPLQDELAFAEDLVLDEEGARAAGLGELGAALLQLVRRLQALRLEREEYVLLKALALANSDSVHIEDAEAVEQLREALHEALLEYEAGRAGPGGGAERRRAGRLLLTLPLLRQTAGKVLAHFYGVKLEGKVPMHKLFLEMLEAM
Assay: TR-FRET assay (disruption of co-activator peptide binding)
Format: biochemical
Conditions: 6His-tagged ERR1LBD, GST-hSRC2 co-activator peptide; average of 3 independent experiments
Protocol: Time-Resolved Fluorescence Resonance Energy Transfer (TR-FRET) experiments were performed to examine the functional response of ERR1 (also known as ERR-α or ERR-1) ligands. The TR-FRET assay described herein relied on the conformation of ERR1 for binding to a co-activator peptide: when a test compound binds to ERR1 and alters its conformation, it can disrupt the binding of the co-activator peptide. The components of this homogeneous secondary assay included: the ^6His-tagged-ERR1LBD, a GST-labeled-hSRC2 co-activator polypeptide and a fluorescent donor/acceptor pair from CIS bio international htrf/bioassays (Bedford, Mass.) using both an α-GST Europium Cryptate (Eu) label and an α^6His-XL665 (allophycocyanin) fluorophore.
For TR-FRET measurements, the reaction was buffered in 25 mM Tris pH 8, 2.5 mM Hepes, 20 mM KCl, 1 mM DTT, and 0.05 mg/mL BSA (-lipids). The final concentrations of reagents were 6 nM of ERR1LBD, 6 nM GST-SRC-2 peptide, 30 nM Eu cryptate, and 7.5 nM XL665. Reactions were allowed to reach equilibrium at 25° C. for 4-18 hours before collecting data on the Analyst from LJL Biosystems (Molecular Devices Sunnyvale, Calif.). As a time-resolved method, the samples were excited at […] and emission was collected for 1 ms at both 615 and 665 nm with delays of 400 and 75 μs, respectively. Dose response curves were fitted using a hyperbolic equation and the data reported is the average of 3 independent experiments.

| Compound | EC50 [nM] |
| --- | --- |
| COC[C@@H]1C[C@H](N(C)C2=NC(=O)/C(=C/c3ccc4c(cnn4Cc4ccc(Cl)cc4C(F)(F)F)c3)S2)CN1 (stereo in doubt) [Compound 41, 5-[1-(4-Chloro-2-trifluoromethyl-benzyl)-1H-indazol-5-ylmethylene]-2-[(5-methoxymethyl-pyrrolidin-3-yl)-methyl-amino]-thiazol-4-one] | 24 |
| CN(C1=NC(=O)/C(=C/c2ccc3c(cnn3Cc3ccc(Cl)cc3C(F)(F)F)c2)S1)[C@@H]1CN[C@H](CO)C1 (stereo in doubt) [Compound 42, 5-[1-(4-Chloro-2-trifluoromethyl-benzyl)-1H-indazol-5-ylmethylene]-2-[(5-hydroxymethyl-pyrrolidin-3-yl)-methyl-amino]-thiazol-4-one] | 24 |
| N#Cc1ccc(Cn2ncc3cc(/C=C4\SC(N(CCO)CCO)=NC4=O)ccc32)c(C(F)(F)F)c1 [Compound 3, 4-(5-{2-[Bis-(2-hydroxy-ethyl)-amino]-4-oxo-4H-thiazol-5-ylidenemethyl}-indazol-1-ylmethyl)-3-trifluoromethyl-benzonitrile] | 120 |
| CN(C)CCN(C)C1=NC(=O)/C(=C/c2ccc3c(cnn3Cc3ccc(S(C)(=O)=O)cc3Cl)c2)S1 [Compound 7, 5-[1-(2-Chloro-4-methanesulfonyl-benzyl)-1H-indazol-5-ylmethylene]-2-[(2-dimethylamino-ethyl)-methyl-amino]-thiazol-4-one] | 830 |
| CN(CC(O)CO)C1=NC(=O)/C(=C/c2ccc3c(cnn3Cc3ccc(S(C)(=O)=O)cc3C(F)(F)F)c2)S1 (centres unmarked) [Compound 8, 2-[(2,3-Dihydroxy-propyl)-methyl-amino]-5-[1-(4-methanesulfonyl-2-trifluoromethyl-benzyl)-1H-indazol-5-ylmethylene]-thiazol-4-one] | 520 |
| COCCN(CCOC)C1=NC(=O)/C(=C/c2ccc3c(cnn3Cc3ncc(C(F)(F)F)cc3Cl)c2)S1 [Compound 10, 2-[Bis-(2-methoxy-ethyl)-amino]-5-[1-(3-chloro-5-trifluoromethyl-pyridin-2-ylmethyl)-1H-indazol-5-ylmethylene]-thiazol-4-one] | 800 |
| CN(CC(O)CO)C1=NC(=O)/C(=C/c2ccc3c(cnn3Cc3ncc(C(F)(F)F)cc3Cl)c2)S1 (centres unmarked) [Compound 11, 5-[1-(3-Chloro-5-trifluoromethyl-pyridin-2-ylmethyl)-1H-indazol-5-ylmethylene]-2-[(2,3-dihydroxy-propyl)-methyl-amino]-thiazol-4-one] | 1600 |
| O=C1N=C(N(CCO)CCO)S/C1=C\c1ccc2c(cnn2Cc2ncc(C(F)(F)F)cc2Cl)c1 [Compound 12, 2-[Bis-(2-hydroxy-ethyl)-amino]-5-[1-(3-chloro-5-trifluoromethyl-pyridin-2-ylmethyl)-1H-indazol-5-ylmethylene]-thiazol-4-one] | 3900 |
| CN(C1=NC(=O)/C(=C/c2ccc3c(cnn3Cc3ccc(C(F)(F)F)cc3C(F)(F)F)c2)S1)C1CCNCC1 [Compound 17, 5-[1-(2,4-Bis-trifluoromethyl-benzyl)-1H-indazol-5-ylmethylene]-2-(methyl-piperidin-4-yl-amino)-thiazol-4-one] | 37 |
| CON(C)C1=NC(=O)/C(=C/c2ccc3c(cnn3Cc3ccc(Cl)cc3C(F)(F)F)c2)S1 [Compound 21, 5-[1-(4-Chloro-2-trifluoromethyl-benzyl)-1H-indazol-5-ylmethylene]-2-(methoxy-methyl-amino)-thiazol-4-one] | 24 |
| CN(CCN1CCOCC1)C1=NC(=O)/C(=C/c2ccc3c(cnn3Cc3ccc(Cl)cc3C(F)(F)F)c2)S1 [Compound 26, 5-[1-(4-Chloro-2-trifluoromethyl-benzyl)-1H-indazol-5-ylmethylene]-2-[methyl-(2-morpholin-4-yl-ethyl)-amino]-thiazol-4-one] | 21 |
| CN(CCN1CCOCC1)C1=NC(=O)/C(=C/c2ccc3c(cnn3Cc3ccc(C(F)(F)F)cc3C(F)(F)F)c2)S1 [Compound 27, 5-[1-(2,4-Bis-trifluoromethyl-benzyl)-1H-indazol-5-ylmethylene]-2-[methyl-(2-morpholin-4-yl-ethyl)-amino]-thiazol-4-one] | 21 |

Stronger by EC50, values ahead:

| EC50 [nM] | Compound |
| --- | --- |
| 12 | CN(C)C1=NC(=O)/C(=C/c2ccc3c(cnn3Cc3ccc(C(F)(F)F)cc3C(F)(F)F)c2)S1 [Compound 1, 5-[1-(2,4-Bis-trifluoromethyl-benzyl)-1H-indazol-5-ylmethylene]-2-dimethylamino-thiazol-4-one] |
| 7 | CN(C)CCN(C)C1=NC(=O)/C(=C/c2ccc3c(cnn3Cc3ccc(C(F)(F)F)cc3C(F)(F)F)c2)S1 [Compound 2, 5-[1-(2,4-Bis-trifluoromethyl-benzyl)-1H-indazol-5-ylmethylene]-2-[(2-dimethylamino-ethyl)-methyl-amino]-thiazol-4-one] |
| 10 | O=C1N=C(N(CCO)CCO)S/C1=C\c1ccc2c(cnn2Cc2ccc(Cl)cc2C(F)(F)F)c1 [Compound 4, 2-[Bis-(2-hydroxy-ethyl)-amino]-5-[1-(4-chloro-2-trifluoromethyl-benzyl)-1H-indazol-5-ylmethylene]-thiazol-4-one] |
| 5.1 | CN(C)CCN(C)C1=NC(=O)/C(=C/c2ccc3c(cnn3Cc3ccc(Cl)cc3C(F)(F)F)c2)S1 [Compound 5, 5-[1-(4-Chloro-2-trifluoromethyl-benzyl)-1H-indazol-5-ylmethylene]-2-[(2-dimethylamino-ethyl)-methyl-amino]-thiazol-4-one] |
| 3.6 | CN(CC(O)CO)C1=NC(=O)/C(=C/c2ccc3c(cnn3Cc3ccc(Cl)cc3C(F)(F)F)c2)S1 (centres unmarked) [Compound 6, 5-[1-(4-Chloro-2-trifluoromethyl-benzyl)-1H-indazol-5-ylmethylene]-2-[(2,3-dihydroxy-propyl)-methyl-amino]-thiazol-4-one] |
| 4.1 | COCCN(CCOC)C1=NC(=O)/C(=C/c2ccc3c(cnn3Cc3ccc(OC)cc3C(F)(F)F)c2)S1 [Compound 9, 2-[Bis-(2-methoxy-ethyl)-amino]-5-[1-(4-methoxy-2-trifluoromethyl-benzyl)-1H-indazol-5-ylmethylene]-thiazol-4-one] |
| 3.6 | COc1ccc(Cn2ncc3cc(/C=C4\SC(N(C)CC(O)CO)=NC4=O)ccc32)c(C(F)(F)F)c1 (centres unmarked) [Compound 13, 2-[(2,3-Dihydroxy-propyl)-methyl-amino]-5-[1-(4-methoxy-2-trifluoromethyl-benzyl)-1H-indazol-5-ylmethylene]-thiazol-4-one] |
| 3.3 | COCCN(CCOC)C1=NC(=O)/C(=C/c2ccc3c(cnn3Cc3ccc(Cl)cc3C(F)(F)F)c2)S1 [Compound 14, 2-[Bis-(2-methoxy-ethyl)-amino]-5-[1-(4-chloro-2-trifluoromethyl-benzyl)-1H-indazol-5-ylmethylene]-thiazol-4-one] |
| 13 | CN(CCN1CCCC1)C1=NC(=O)/C(=C/c2ccc3c(cnn3Cc3ccc(Cl)cc3C(F)(F)F)c2)S1 [Compound 18, 5-[1-(4-Chloro-2-trifluoromethyl-benzyl)-1H-indazol-5-ylmethylene]-2-[methyl-(2-pyrrolidin-1-yl-ethyl)amino]-thiazol-4-one] |
| 8.1 | CN1CCC(N(C)C2=NC(=O)/C(=C/c3ccc4c(cnn4Cc4ccc(Cl)cc4C(F)(F)F)c3)S2)CC1 [Compound 19, 5-[1-(4-Chloro-2-trifluoromethyl-benzyl)-1H-indazol-5-ylmethylene]-2-[methyl-(1-methyl-piperidin-4-yl)-amino]-thiazol-4-one] |
| 13 | CN(CC(=O)O)C1=NC(=O)/C(=C/c2ccc3c(cnn3Cc3ccc(Cl)cc3C(F)(F)F)c2)S1 [Compound 22, ({5-[1-(4-Chloro-2-trifluoromethyl-benzyl)-1H-indazol-5-ylmethylene]-4-oxo-4,5-dihydro-thiazol-2-yl}-methyl-amino)-acetic acid] |
| 9 | CN1CCN(CCN(C)C2=NC(=O)/C(=C/c3ccc4c(cnn4Cc4ccc(Cl)cc4C(F)(F)F)c3)S2)CC1 [Compound 23, 5-[1-(4-Chloro-2-trifluoromethyl-benzyl)-1H-indazol-5-ylmethylene]-2-{methyl-[2-(4-methyl-piperazin-1-yl)-ethyl]-amino}-thiazol-4-one] |
| 9 | COCCN1CCC(N(C)C2=NC(=O)/C(=C/c3ccc4c(cnn4Cc4ccc(Cl)cc4C(F)(F)F)c3)S2)CC1 [Compound 24, 5-[1-(4-Chloro-2-trifluoromethyl-benzyl)-1H-indazol-5-ylmethylene]-2-{[1-(2-methoxy-ethyl)-piperidin-4-yl]-methyl-amino}-thiazol-4-one] |
| 11 | CN(C1=NC(=O)/C(=C/c2ccc3c(cnn3Cc3ccc(Cl)cc3C(F)(F)F)c2)S1)C1CCN(CCF)CC1 [Compound 25, 5-[1-(4-Chloro-2-trifluoromethyl-benzyl)-1H-indazol-5-ylmethylene]-2-{[1-(2-fluoro-ethyl)-piperidin-4-yl]-methyl-amino}-thiazol-4-one] |
